Test results: ChEMBL document CHEMBL1130537, “Asymmetric synthesis of the sulfoxide metabolite of ON-579 by the kagan protocol” (Bioorg Med Chem Lett, 1997)

Species: Oryctolagus cuniculus
Assay: Inhibitory activity against U-46,619-induced rabbit platelet aggregation was determined
Assay type: functional

How did the IC50 (Oryctolagus cuniculus) turn out when `O=C(O)COc1c(F)cc(SCCNS(=O)(=O)c2ccc(Cl)cc2)cc1F` was run?
Its IC50 is 0.34 µM.

Which IC50 does the source give for `O=C(O)COc1c(F)cc([S+]([O-])CCNS(=O)(=O)c2ccc(Cl)cc2)cc1F` (racemic; form 1) here?
Its IC50 is no less than 1 µM.

How did the IC50 turn out when `O=C(O)COc1c(F)cc([S+]([O-])CCNS(=O)(=O)c2ccc(Cl)cc2)cc1F` (racemic; form 2) was run?
The IC50 was 18.9 µM.

For `O=C(O)COc1c(F)cc([S+]([O-])CCNS(=O)(=O)c2ccc(Cl)cc2)cc1F` (stereo in doubt; (-/-)4b), which IC50 is on record?
Its IC50 is 13.3 µM.
